Data taken from patent US20160067162A1, “PHOTOPROTECTIVE COMPOUNDS, COMPOSITIONS INCLUDING SAME AND USES THEREOF” (UNIVERSITE DE RENNES 1, priority 2013, published 2016).

Legend:
Type in all cases: physicochemical
[1] = UV spectrum measurement in CHCl3 (λmax, molar extinction coefficient); conditions: for λmax exp: 10^−4 M in CHCl3; for ε (molar extinction coefficient at the λmax): 10^−4 M in CHCl3, 1 cm cuvette
Experimental: The products are diluted in CHCl3 so as to obtain a solution at 10^−4M. The UV spectra are measured using a Uvikon 931 UV-vis spectrophotometer, Serlabo Technologies, Entraigues sur la Sorgue, France. This UV spectrum makes it possible to determine the molar extinction coefficient (mol^−1 L cm^−1) at the λmax by virtue of the Beer-Lambert law: c=A/l×C;
A=value of the absorbance at the λmax; l=length of the cuvette in cm (l=1);
C=concentration of the solution=1×10^−4 mol/l. The theoretical λmax was determined for certain products by DFT calculation.

[2] = SPF measurement, Protocol I (Rennes): simplified O/W emulsion, UV spectrum 200-400 nm; conditions: for λc p.I: critical wavelength; for λc p.I / Colipa UVA-PF p.I, at 10% / SPF p.I, at 10%: protocol I; for Colipa UVA-PF p.I, at 10%: product at 10%; for SPF p.I, at 10%: product at 10% in simplified O/W emulsion; for UVA/UVB: ratio of area under the curve 315-400 nm to 280-315 nm
Experimental: The SPF measurement is carried out according to the following protocol described in Le Dévéhat F., Malargé A., Couteau C., Coiffard L., Legouin B. “Evaluation of a new UV-filter screening method”, 4th symposium of the AFERP “Biodiversity, chimie des substances naturelles et medicaments” [“Biodiversity, chemistry of natural substances and medicaments”] and 3rd Franco-Pakistani symposium, Besançon (France), Jul. 16-17-18, 2010. A solution of each product dissolved in dimethyl sulfoxide is incorporated at 10% into a simplified emulsion of oil-in-water (O/W) type consisting of liquid paraffin, water and SDS at 10%, the whole mixture taken up in absolute ethanol. The UV spectrum of each solution is recorded between 200 nm and 400 nm in a 10 mm quartz cell on a Uvikon 931 UV-vis spectrophotometer and measured in comparison with a control 10% emulsion solution.
(§1) The SPF and UVA-PF values are, for the two protocols, calculated from the following equations: […]
(§2) where Eλ is the erythemogenic effect of the radiation at the wavelength λ; Sλ is the spectral solar irradiance at the wavelength λ and Tλ is the spectral transmittance of the product at the wavelength λ, λc is the critical wavelength which corresponds to the wavelength at which 90% of the area under the curve (AUC) is integrated between 290 and 400 nm. The UVA/UVB ratio corresponds more specifically to the ratio of the area under the curve between 315 and 400 nm to the area under the curve between 280 and 315 nm.

[3] = SPF measurement, Protocol II (Nantes): O/W emulsion on PMMA plate, transmission with integrating sphere; conditions: for λc (p.II): critical wavelength; for SPF (p.II, at 1%): product at 1% in O/W emulsion, PMMA plate, 290-400 nm; for Colipa UVA-PF (p.II, at 1%): product at 1%, 320-400 nm
Experimental: The SPF measurement is carried out according to the protocol described in Lohézic-Le Dévéhat F., Legouin B., Couteau C., Boustie J., Coiffard L. “Lichenic extracts and metabolites as UV filters” Journal of Photochemistry and Photobiology B: Biology 120 (2013) 17-28:
An emulsion having the following formulation is used: […]
The two phases are prepared separately. The hydrophilic phase is then added, with stirring, to the lipophilic phase. The products are finally incorporated at 1% into this O/W emulsion. 30 mg of the whole mixture are distributed over the entire surface area (25 cm^2) of a PMMA plate using a finger store. After spreading, 15 mg remain on the finger store. Three plates are prepared per product and nine measurements are carried out. The transmission measurements between 290 and 400 nm for the SPF and between 320 and 400 nm for the UVA-PF are carried out using a spectrophotometer equipped with an integrating sphere (UV Transmittance analyzer UV1000S, Labsphere, North Sutton, US).
as §1, §2

| Molecule | λmax exp [1] | ε (molar extinction coefficient at the λmax) [1] | λc p.I [2] | Colipa UVA-PF p.I, at 10% [2] | SPF p.I, at 10% [2] | UVA/UVB [2] | λc (p.II) [3] | SPF (p.II, at 1%) [3] | Colipa UVA-PF (p.II, at 1%) [3] | Colipa UVA-PF p.I, at 10% ([2]; listed as oxybenzone) |
| --- | --- | --- | --- | --- | --- | --- | --- | --- | --- | --- |
| O=C1C=C(c2ccc(Cl)cc2)NCC1 [Compound 1, 6-(4-chlorophenyl)-2,3-dihydropyridin-4(1H)-one] | 328 nm | 8131 L/mol/cm | 366 nm | 3.97 ± 0.15 | 2.27 ± 0.06 | 4.78 ± 0.57 | – | – | – | – |
| O=C1C=C(c2ccc(F)cc2)NCC1 [Compound 2, 6-(4-fluorophenyl)-2,3-dihydropyridin-4(1H)-one] | 326 nm | 10924 L/mol/cm | 361 nm | 5.85 ± 0.16 | 4.30 ± 0.12 | 3.08 ± 0.00 | 383 nm | 1.81 ± 0.11 | 1.95 ± 0.12 | – |
| COc1ccc(C2=CC(=O)CCN2)cc1 [Compound 3, 6-(4-methoxyphenyl)-2,3-dihydropyridin-4(1H)-one] | 330 nm | 16259 L/mol/cm | 362 nm | 9.16 ± 0.10 | 4.30 ± 0.12 | 2.85 ± 0.01 | 384 nm | 1.25 ± 0.04 | 1.33 ± 0.04 | – |
| CN(C)c1ccc(C2=CC(=O)CCN2)cc1 [Compound 4, 6-(4-(dimethylamino)phenyl)-2,3-dihydropyridin-4(1H)-one] | 355 nm | 26286 L/mol/cm | 361 nm | 42.67 ± 1.16 | 9.24 ± 0.18 | 5.19 ± 0.01 | 387 nm | 1.72 ± 0.08 | 1.88 ± 0.09 | – |
| CC(C)(C)OC(=O)NC1=C(c2ccccc2)N(C(=O)OC(C)(C)C)CCC1=O [Compound 6, tert-butyl 5-(tert-butoxycarbonylamino)-4-oxo-6-phenyl-3,4-dihydropyridine-1(2H)-carboxylate] | 322 nm | 11206 L/mol/cm | 351 nm | 1.56 ± 0.04 | 2.04 ± 0.09 | 1.24 ± 0.0 | – | – | – | – |
| CCOC(=O)/C=C/C1=C(c2ccccc2)N(C(=O)OC(C)(C)C)CCC1=O [Compound 7, (E)-tert-butyl 5-(3-ethoxy-3-oxoprop-1-enyl)-4-oxo-6-phenyl-3,4-dihydropyridine-1(2H)-carboxylate] | 343 nm | 15426 L/mol/cm | 375 nm | 2.92 ± 0.17 | 1.61 ± 0.13 | 6.36 ± 1.16 | – | – | – | – |
| CCOC(=O)/C=C/C1=C(c2ccccc2)NCCC1=O [Compound 8, (E)-ethyl 3-(4-oxo-2-phenyl-1,4,5,6-tetrahydropyridin-3-yl)acrylate] | 306 nm | 16596 L/mol/cm | 378 nm | 5.38 ± 0.16 | 6.73 ± 0.27 | 2.22 ± 0.01 | – | – | – | – |
| CCOC(=O)/C=C/C1=C(c2ccccc2)N[C@@H](COCc2ccccc2)CC1=O [Compound 9, (R,E)-ethyl 3-(6-(benzyloxymethyl)-4-oxo-2-phenyl-1,4,5,6-tetrahydropyridin-3-yl)acrylate] | 308 nm | 31339 L/mol/cm | 353 nm | 3.54 | 5.40 ± 0.43 | 1.84 | – | – | – | – |
| CCCCC(CC)COC(=O)c1ccc(Nc2nc(Nc3ccc(C(=O)NC(C)(C)C)cc3)nc(Nc3ccc(C(=O)OCC(CC)CCCC)cc3)n2)cc1 (stereo not shown) [Diethylhexyl Butamido Triazone, reference compound] | – | – | – | 1.27 ± 0.01 | 10.10 ± 0.02 | 0.12 ± 0.01 | – | – | – | – |
| CC1CC(OC(=O)c2ccccc2O)CC(C)(C)C1 (stereo not shown) [Homosalate, reference compound] | – | – | 323 ± 1 nm | 1.08 ± 0.00 | 1.91 ± 0.04 | 0.17 ± 0.00 | – | – | – | – |
| COc1ccc(C(=O)c2ccccc2)c(O)c1 [Oxybenzone, reference compound] | – | – | 349 ± 1 nm | 2.63 ± 0.01 | 5.27 ± 0.25 | 0.98 ± 0.00 | – | – | – | 2.63 |
| PEG-25 PABA [reference compound] | – | – | 324 ± 1 nm | 1.11 ± 0.01 | 2.04 ± 0.05 | 0.19 ± 0.01 | – | – | – | – |

More lines, main results first:

| λmax exp [1] | ε (molar extinction coefficient at the λmax) [1] | Molecule | λc p.I [2] | Colipa UVA-PF p.I, at 10% [2] | SPF p.I, at 10% [2] | UVA/UVB [2] | λc (p.II) [3] | SPF (p.II, at 1%) [3] | Colipa UVA-PF (p.II, at 1%) [3] | Colipa UVA-PF p.I, at 10% ([2]; listed as oxybenzone) |
| --- | --- | --- | --- | --- | --- | --- | --- | --- | --- | --- |
| 310 nm | 18622 L/mol/cm | COc1cc(OC)cc(C2=CC(=O)CCN2C(=O)OC(C)(C)C)c1 [Compound 10, tert-butyl 6-(3,5-dimethoxyphenyl)-4-oxo-3,4-dihydropyridine-1(2H)-carboxylate] | 334 nm | 1.88 ± 0.01 | 5.54 ± 0.66 | 0.49 ± 0.15 | – | – | – | – |
| 331 nm | 14280 L/mol/cm | COc1ccc2cc(C3=CC(=O)CCN3C(=O)OC(C)(C)C)ccc2c1 [Compound 11, tert-butyl 6-(6-methoxynaphthalen-2-yl)-4-oxo-3,4-dihydropyridine-1(2H)-carboxylate] | 362 nm | 4.70 ± 0.42 | 5.50 ± 0.62 | 1.92 ± 0.01 | – | – | – | – |
| 316 nm | 20575 L/mol/cm | CC(C)(C)OC(=O)N1CCC(=O)C=C1c1ccc(Oc2ccccc2)cc1 [Compound 12, tert-butyl 4-oxo-6-(4-phenoxyphenyl)-3,4-dihydropyridine-1(2H)-carboxylate] | 340 nm | 1.98 ± 0.05 | 5.31 ± 0.45 | 0.71 ± 0.01 | – | – | – | – |
| 337 nm | 15578 L/mol/cm | COc1ccc2cc(C3=CC(=O)CCN3)ccc2c1 [Compound 15, 6-(6-methoxynaphthalen-2-yl)-2,3-dihydropyridin-4(1H)-one] | 368 nm | 7.41 ± 1.34 | 5.89 ± 0.99 | 2.65 ± 0.01 | – | – | – | – |
| 333 nm | 13110 L/mol/cm | COc1ccccc1C1=CC(=O)CCN1 [Compound 16, 6-(2-methoxyphenyl)-2,3-dihydropyridin-4(1H)-one] | 358 nm | 4.96 ± 0.18 | 5.94 ± 0.34 | 2.12 | – | – | – | – |
| 316 nm | 20260 L/mol/cm | CCCC1=C(/C=C/C(=O)OCC)C(=O)C[C@H](Cc2ccccc2)N1 [Compound 17, (S,E)-ethyl 3-(6-benzyl-4-oxo-2-propyl-1,4,5,6-tetrahydropyridin-3-yl)acrylate] | 353 nm | 4.88 ± 0.11 | 13.28 ± 0.66 | 1.46 ± 0.01 | – | – | – | – |
| 355 nm | 8618 L/mol/cm | CN1C=C(NC(=O)OC(C)(C)C)C(=O)CC1 [Compound 18, tert-butyl 1-methyl-4-oxo-1,4,5,6-tetrahydropyridin-3-ylcarbamate] | 368 nm | 3.49 ± 0.17 | 2.67 ± 0.08 | 3.05 ± 0.04 | – | – | – | – |
